Reference: ChEMBL document CHEMBL1158981, “An Unusual Sulfur-Containing Diketopiperazine from the Bermudian Sponge Tedania ignis” (J Nat Prod, 1991)

Test system: Artemia
Experiment: Toxicity against brine shrimp
Type: organism-based
Conditions: in vivo

Structure (SMILES): O=C1[C@@H]2CCCN2C(=O)[C@H]2CSCN12
- Activity: Non-toxic
